According to patent US11739098B2 (BRISTOL-MYERS SQUIBB COMPANY, priority 2017, dated 2023):

Assays:
Format in all cases: cell-based
human TLR7 = biological target: T1, human TLR7 (Homo sapiens, UniProt Q9NYK1); assay: TLR7 inhibition reporter assay (HEK-Blue cells, SEAP reporter, gardiquimod stimulation); conditions: HEK-Blue cells overexpressing human TLR7, SEAP reporter, gardiquimod 7.5 μM
T1 construct: host or cells: HEK-Blue cells (HEK293-derived reporter line)
T1 sequence (Q9NYK1 27-1049): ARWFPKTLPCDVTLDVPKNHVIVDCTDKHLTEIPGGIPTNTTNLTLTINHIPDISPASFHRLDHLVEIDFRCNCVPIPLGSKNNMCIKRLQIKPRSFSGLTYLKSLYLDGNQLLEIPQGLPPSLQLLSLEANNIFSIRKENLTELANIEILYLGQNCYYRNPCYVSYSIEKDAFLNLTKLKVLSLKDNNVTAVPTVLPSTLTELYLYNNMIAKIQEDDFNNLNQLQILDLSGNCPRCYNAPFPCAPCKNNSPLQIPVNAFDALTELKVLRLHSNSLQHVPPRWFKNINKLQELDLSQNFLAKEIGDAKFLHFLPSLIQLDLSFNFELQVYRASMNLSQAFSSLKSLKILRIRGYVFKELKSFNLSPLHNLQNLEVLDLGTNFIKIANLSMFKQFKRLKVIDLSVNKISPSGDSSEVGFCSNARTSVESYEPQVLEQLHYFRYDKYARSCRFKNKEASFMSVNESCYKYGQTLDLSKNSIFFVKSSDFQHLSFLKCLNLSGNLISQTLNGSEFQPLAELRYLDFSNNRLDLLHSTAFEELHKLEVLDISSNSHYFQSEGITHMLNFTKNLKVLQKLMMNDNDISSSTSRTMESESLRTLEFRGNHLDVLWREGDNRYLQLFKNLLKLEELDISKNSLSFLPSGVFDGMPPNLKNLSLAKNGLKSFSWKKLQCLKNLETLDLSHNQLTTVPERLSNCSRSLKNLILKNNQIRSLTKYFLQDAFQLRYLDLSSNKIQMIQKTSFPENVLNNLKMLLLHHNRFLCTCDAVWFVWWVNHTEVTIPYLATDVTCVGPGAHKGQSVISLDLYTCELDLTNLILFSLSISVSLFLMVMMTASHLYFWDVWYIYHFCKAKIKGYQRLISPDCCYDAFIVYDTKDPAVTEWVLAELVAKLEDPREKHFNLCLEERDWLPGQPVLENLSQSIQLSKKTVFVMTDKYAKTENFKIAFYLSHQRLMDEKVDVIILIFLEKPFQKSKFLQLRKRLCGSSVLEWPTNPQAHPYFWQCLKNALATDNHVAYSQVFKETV
Summary of the method: (§1)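 After 22 h at 37 °C, SEAP secretion was measured from human TLR7-, TLR8- or TLR9-expressing HEK-Blue reporter cells given compound (0.05 nM–50 μM) 30 min before agonist: 7.5 μM gardiquimod, 15.9 μM R848 or 5 nM ODN2006 respectively. Percent inhibition referenced to agonist-plus-DMSO and known-inhibitor wells.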

human TLR8 = biological target: T2, human TLR8 (Homo sapiens, UniProt Q9NR97); assay: TLR8 inhibition reporter assay (HEK-Blue cells, SEAP reporter, R848 stimulation); conditions: HEK-Blue cells overexpressing human TLR8, SEAP reporter, R848 15.9 μM
T2 construct: host or cells: HEK-Blue cells (HEK293-derived reporter line)
T2 sequence (Q9NR97 27-1041): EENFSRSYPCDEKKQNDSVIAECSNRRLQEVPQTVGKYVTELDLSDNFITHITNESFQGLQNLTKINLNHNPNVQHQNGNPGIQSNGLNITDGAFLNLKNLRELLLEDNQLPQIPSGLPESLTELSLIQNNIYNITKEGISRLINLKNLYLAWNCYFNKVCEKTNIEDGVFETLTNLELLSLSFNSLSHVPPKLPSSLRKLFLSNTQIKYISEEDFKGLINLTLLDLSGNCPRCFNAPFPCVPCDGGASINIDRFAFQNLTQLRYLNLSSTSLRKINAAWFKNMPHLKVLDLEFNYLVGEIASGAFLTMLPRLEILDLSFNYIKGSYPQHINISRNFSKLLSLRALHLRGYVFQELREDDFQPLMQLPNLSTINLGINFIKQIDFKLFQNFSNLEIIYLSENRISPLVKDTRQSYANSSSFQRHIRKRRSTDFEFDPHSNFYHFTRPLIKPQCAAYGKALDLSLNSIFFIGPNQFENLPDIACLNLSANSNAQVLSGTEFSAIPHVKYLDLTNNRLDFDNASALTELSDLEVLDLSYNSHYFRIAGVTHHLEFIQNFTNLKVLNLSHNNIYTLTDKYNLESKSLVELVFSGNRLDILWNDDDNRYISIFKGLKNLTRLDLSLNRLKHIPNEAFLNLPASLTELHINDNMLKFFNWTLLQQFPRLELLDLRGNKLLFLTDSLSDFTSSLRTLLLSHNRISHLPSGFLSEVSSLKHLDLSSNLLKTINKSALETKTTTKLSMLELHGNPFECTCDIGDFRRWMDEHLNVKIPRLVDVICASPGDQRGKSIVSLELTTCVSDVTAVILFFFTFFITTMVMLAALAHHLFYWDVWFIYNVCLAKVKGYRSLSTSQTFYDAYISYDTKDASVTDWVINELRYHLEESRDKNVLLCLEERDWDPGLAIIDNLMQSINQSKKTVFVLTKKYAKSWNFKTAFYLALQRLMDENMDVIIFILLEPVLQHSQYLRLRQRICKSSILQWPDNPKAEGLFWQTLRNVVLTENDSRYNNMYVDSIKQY
Summary of the method: as §1

human TLR9 = biological target: T3, human TLR9 (Homo sapiens, UniProt Q9NR96); assay: TLR9 inhibition reporter assay (HEK-Blue cells, SEAP reporter, ODN2006 stimulation); conditions: HEK-Blue cells overexpressing human TLR9, SEAP reporter, ODN2006 5 nM
T3 construct: host or cells: HEK-Blue cells (HEK293-derived reporter line)
T3 sequence (Q9NR96 26-1032): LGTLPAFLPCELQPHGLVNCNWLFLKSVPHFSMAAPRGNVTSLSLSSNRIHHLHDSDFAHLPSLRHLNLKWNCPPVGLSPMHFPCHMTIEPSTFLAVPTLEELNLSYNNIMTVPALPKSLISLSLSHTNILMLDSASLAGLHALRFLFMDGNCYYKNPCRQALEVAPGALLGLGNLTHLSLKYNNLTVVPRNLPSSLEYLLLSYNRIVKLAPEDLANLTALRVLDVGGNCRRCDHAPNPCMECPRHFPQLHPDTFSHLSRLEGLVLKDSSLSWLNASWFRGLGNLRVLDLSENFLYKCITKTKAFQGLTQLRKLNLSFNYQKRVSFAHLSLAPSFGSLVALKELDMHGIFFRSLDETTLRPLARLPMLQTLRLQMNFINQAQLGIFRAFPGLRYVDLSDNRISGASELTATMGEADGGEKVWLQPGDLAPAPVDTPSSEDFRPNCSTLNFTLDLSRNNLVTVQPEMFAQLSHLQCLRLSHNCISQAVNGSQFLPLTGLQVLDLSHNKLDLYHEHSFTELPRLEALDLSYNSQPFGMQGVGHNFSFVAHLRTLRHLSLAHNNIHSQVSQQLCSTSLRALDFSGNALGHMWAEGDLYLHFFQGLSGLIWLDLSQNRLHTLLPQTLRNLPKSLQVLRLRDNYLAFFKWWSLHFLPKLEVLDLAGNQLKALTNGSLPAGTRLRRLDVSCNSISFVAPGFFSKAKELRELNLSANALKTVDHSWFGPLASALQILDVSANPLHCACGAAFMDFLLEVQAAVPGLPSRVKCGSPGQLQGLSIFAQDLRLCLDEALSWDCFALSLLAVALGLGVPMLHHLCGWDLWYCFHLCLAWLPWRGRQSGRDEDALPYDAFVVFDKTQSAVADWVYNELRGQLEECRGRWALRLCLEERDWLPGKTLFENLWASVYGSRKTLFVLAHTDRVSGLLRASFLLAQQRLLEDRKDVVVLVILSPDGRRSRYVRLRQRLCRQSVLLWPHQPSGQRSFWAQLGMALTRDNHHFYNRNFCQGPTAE
Summary of the method: as §1

| Compound | IC50 (human TLR7) | IC50 (human TLR8) | IC50 (human TLR9) |
| --- | --- | --- | --- |
| CNCCN1CCC(c2ccc3[nH]c(-c4ccnc5[nH]ncc45)c(C(C)C)c3c2)C(F)(F)C1 (stereo not drawn) [Example 674, 2-(3,3-difluoro-4-(3-isopropyl-2-(1H-pyrazolo[3,4-b]pyridin-4-yl)-1H-indol-5-yl)piperidin-1-yl)-N-methylethan-1-amine] | < 100 nM | < 100 nM | 100 to 1000 nM |
| COc1ccc2nc(Cl)c(CN3CCC(c4ccc5[nH]c(-c6ccnc7[nH]ncc67)c(C(C)C)c5c4)CC3)cc2c1 [Example 902, 2-chloro-3-((4-(3-isopropyl-2-(1H-pyrazolo[3,4-b]pyridin-4-yl)-1H-indol-5-yl)piperidin-1-yl)methyl)-6-methoxyquinoline] | 100 to 1000 nM | 100 to 1000 nM | > 50000 nM |
| COc1c(C)c(-c2[nH]c3ccc(C4CCN(CC(C)(C)O)CC4)cc3c2C(C)C)nn2ncnc12 [Example 748, 1-(4-(3-isopropyl-2-(8-methoxy-7-methyl-[1,2,4]triazolo[1,5-b]pyridazin-6-yl)-1H-indol-5-yl)piperidin-1-yl)-2-methylpropan-2-ol] | < 100 nM | < 100 nM | 1000 to 50000 nM |
| Cc1cc(-c2[nH]c3ccc(C4CCN(C(=O)CN(C)C(C)C)CC4)cc3c2C(C)C)cn2nnnc12 [Example 480, 2-(isopropyl(methyl)amino)-1-(4-(3-isopropyl-2-(8-methyltetrazolo[1,5-a]pyridin-6-yl)-1H-indol-5-yl)piperidin-1-yl)ethan-1-one] | < 100 nM | < 100 nM | 1000 to 50000 nM |
| CNCCN1CCC(c2ccc3[nH]c(-c4cccc5cccnc45)c(C)c3c2)CC1 [Example 662, N-methyl-2-(4-(3-methyl-2-(quinolin-8-yl)-1H-indol-5-yl)piperidin-1-yl)ethan-1-amine] | 1000 to 50000 nM | > 3130 nM | 1000 to 50000 nM |
| CNC(=O)CN1CCC(c2ccc3[nH]c(-c4cc(C(F)(F)F)c5nccn5c4)c(C(C)C)c3c2)CC1 [Example 373, 2-(4-(3-isopropyl-2-(8-(trifluoromethyl)imidazo[1,2-a]pyridin-6-yl)-1H-indol-5-yl)piperidin-1-yl)-N-methylacetamide] | < 100 nM | < 100 nM | 1000 to 50000 nM |

Now from value to molecule:

| IC50 (human TLR7) | IC50 (human TLR8) | IC50 (human TLR9) | Compound |
| --- | --- | --- | --- |
| 1000 to 50000 nM | 1000 to 50000 nM | 100 to 1000 nM | Cc1nc2c(-c3[nH]c4ccc(C5CCNCC5)cc4c3C)ccnc2[nH]1 [Example 232, 2-methyl-7-(3-methyl-5-(piperidin-4-yl)-1H-indol-2-yl)-3H-imidazo[4,5-b]pyridine] |
| < 100 nM | < 100 nM | 1000 to 50000 nM | CC(C)c1c(-c2cn(C)c3ncccc23)[nH]c2ccc(C3CCN(CC#N)CC3)cc12 [Example 958, 2-(4-(3-isopropyl-2-(1-methyl-1H-pyrrolo[2,3-b]pyridin-3-yl)-1H-indol-5-yl)piperidin-1-yl)acetonitrile] |
| < 100 nM | < 100 nM | 1000 to 50000 nM | COc1nc(-c2[nH]c3ccc(C4CCN(CC(=O)N(C)C)CC4)cc3c2C(C)C)cn2ncnc12 [Example 292, 2-(4-(3-isopropyl-2-(8-methoxy-[1,2,4]triazolo[1,5-a]pyrazin-6-yl)-1H-indol-5-yl)piperidin-1-yl)-N,N-dimethylacetamide] |
| < 100 nM | < 100 nM | 1000 to 50000 nM | Cc1ccc(-c2[nH]c3ccc(C4CCN(CC(=O)N(C)C)CC4)cc3c2C(C)C)c2ncnn12 [Example 385, 2-(4-(3-isopropyl-2-(5-methyl-[1,2,4]triazolo[1,5-a]pyridin-8-yl)-1H-indol-5-yl)piperidin-1-yl)-N,N-dimethylacetamide] |
| < 100 nM | < 100 nM | 100 to 1000 nM | Cc1cc(-c2[nH]c3ccc(C4CCN(CC(=O)N(C)C)CC4)cc3c2C(C)C)cn2ccnc12 [Example 398, 2-(4-(3-isopropyl-2-(8-methylimidazo[1,2-a]pyridin-6-yl)-1H-indol-5-yl)piperidin-1-yl)-N,N-dimethylacetamide] |
| < 100 nM | < 100 nM | 100 to 1000 nM | Cc1cc(-c2[nH]c3ccc(C4CCN(C(=O)CN(C)C)CC4)cc3c2C(C)C)cn2ccnc12 [Example 528, 2-(dimethylamino)-1-(4-(3-isopropyl-2-(8-methylimidazo[1,2-a]pyridin-6-yl)-1H-indol-5-yl)piperidin-1-yl)ethan-1-one] |
| 100 to 1000 nM | 100 to 1000 nM | 1000 to 50000 nM | CC(C)c1c(-c2ccn3nccc3n2)[nH]c2ccc(C3CCNCC3)cc12 [Example 193, 5-(3-isopropyl-5-(piperidin-4-yl)-1H-indol-2-yl)pyrazolo[1,5-a]pyrimidine] |
| < 100 nM | < 100 nM | 100 to 1000 nM | COc1cc(-c2[nH]c3ccc(C4CCNCC4)cc3c2C(C)C)nn2ncnc12 [Example 38, 6-(3-isopropyl-5-(piperidin-4-yl)-1H-indol-2-yl)-8-methoxy-[1,2,4]triazolo[1,5-b]pyridazine] |
